Data as given in paper PMC4823997 (Journal of medicinal chemistry, 2015).
Like-named read-outs stand apart in the source and are kept apart here. Values belong to the compound of their own block, whether it stands above or below them.

Experiments:
[1] = molecular target: T1, CCR4 (Homo sapiens, UniProt P51679); experiment: CCR4 radioligand binding assay; settings: for selective index CCR4: selectivity for CXCR4 binding versus CCR4
T1 sequence (P51679 1-360): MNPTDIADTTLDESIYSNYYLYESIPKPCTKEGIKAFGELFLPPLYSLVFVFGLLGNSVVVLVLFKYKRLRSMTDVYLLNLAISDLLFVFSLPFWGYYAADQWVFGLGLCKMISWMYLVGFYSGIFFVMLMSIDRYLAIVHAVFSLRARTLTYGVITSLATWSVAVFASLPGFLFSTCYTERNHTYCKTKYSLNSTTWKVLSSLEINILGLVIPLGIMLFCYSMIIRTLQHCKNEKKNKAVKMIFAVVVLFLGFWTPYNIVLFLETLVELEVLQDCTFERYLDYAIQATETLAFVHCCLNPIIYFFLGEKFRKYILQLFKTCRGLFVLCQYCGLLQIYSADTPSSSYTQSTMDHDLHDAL

[2] = molecular target: hCXCR4 (Homo sapiens, UniProt P61073); experiment: Radioligand [125I]SDF-1α binding to hCXCR4-transfected HEK293 membrane
[3] = tested on: TZM-bl cells; experiment: Cytotoxicity assay; format: cell-based
[4] = tested on: CEM cells; experiment: Cytotoxicity assay; format: cell-based, human
[5] = molecular target: CCR5 (Homo sapiens, UniProt P51681); experiment: CCR5 radioligand binding assay; settings: for selective index CCR5: selectivity for CXCR4 binding versus CCR5
[6] = molecular target: CXCR7 (Homo sapiens, UniProt P25106); format: cell-based
[7] = molecular target: T2, CXCR2 (Homo sapiens, UniProt P25025); experiment: CXCR2 radioligand binding assay; settings: for selective index CXCR2: selectivity for CXCR4 binding versus CXCR2
T2 sequence (P25025 1-360): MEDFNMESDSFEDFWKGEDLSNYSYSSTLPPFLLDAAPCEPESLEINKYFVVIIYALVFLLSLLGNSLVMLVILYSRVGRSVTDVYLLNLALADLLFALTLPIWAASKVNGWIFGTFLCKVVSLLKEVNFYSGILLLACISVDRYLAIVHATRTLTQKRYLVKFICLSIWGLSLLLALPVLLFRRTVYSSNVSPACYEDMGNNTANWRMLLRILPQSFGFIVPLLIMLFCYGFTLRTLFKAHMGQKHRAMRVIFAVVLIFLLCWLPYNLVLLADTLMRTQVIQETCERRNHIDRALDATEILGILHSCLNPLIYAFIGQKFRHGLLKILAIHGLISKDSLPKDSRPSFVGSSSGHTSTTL

[8] = tested on: HIV-1; settings: 0 to 20 nM
[9] = tested on: CCRF-CEM cells that express endogenous human CXCR4; settings: read-out: IC50 to block SDF-1α-induced CEM migration, 10 nM SDF-1, 2.5 h
[10] = tested on: HIV-1 IIIB; experiment: Luciferase activity assay of HIV-1 infectivity in TZM-bl cells; format: cell-based; settings: read-out: Anti-HIV EC50; TZM-bl cells, HIV-1 IIIB, M.O.I. 1
[11] = molecular target: CCR2 (Homo sapiens, UniProt P41597); experiment: CCR2 radioligand binding assay; settings: for selective index CCR2: selectivity for CXCR4 binding versus CCR2
[12] = Cytotoxicity assay; format: cell-based; settings: human, TZM-bl cells
[13] = Cytotoxicity assay; format: cell-based, human; settings: human, CEM cells (T-lymphoblast leukemia)

Chain of CCR2 (P41597 whole entry, species assumed): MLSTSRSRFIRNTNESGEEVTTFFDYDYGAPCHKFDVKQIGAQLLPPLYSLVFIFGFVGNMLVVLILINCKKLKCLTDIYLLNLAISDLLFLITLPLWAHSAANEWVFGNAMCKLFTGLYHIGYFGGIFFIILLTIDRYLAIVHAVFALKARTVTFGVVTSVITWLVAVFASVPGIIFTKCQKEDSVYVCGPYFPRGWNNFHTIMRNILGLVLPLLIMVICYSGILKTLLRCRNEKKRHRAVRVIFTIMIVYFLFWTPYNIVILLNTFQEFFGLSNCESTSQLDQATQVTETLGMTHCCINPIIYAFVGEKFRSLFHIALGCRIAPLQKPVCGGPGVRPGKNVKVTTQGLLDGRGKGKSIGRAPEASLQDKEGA
Chain of CCR5 (P51681 whole entry, species assumed): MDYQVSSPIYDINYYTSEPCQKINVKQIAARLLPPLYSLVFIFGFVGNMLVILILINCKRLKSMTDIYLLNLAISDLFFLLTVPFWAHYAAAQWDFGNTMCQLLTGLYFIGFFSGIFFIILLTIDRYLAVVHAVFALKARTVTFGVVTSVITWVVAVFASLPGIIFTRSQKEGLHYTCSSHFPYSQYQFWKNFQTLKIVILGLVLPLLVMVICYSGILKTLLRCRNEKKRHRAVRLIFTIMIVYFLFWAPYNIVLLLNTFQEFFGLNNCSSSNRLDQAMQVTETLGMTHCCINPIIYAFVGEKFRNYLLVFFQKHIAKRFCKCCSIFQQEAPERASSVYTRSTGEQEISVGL
Chain of hCXCR4 (P61073 whole entry): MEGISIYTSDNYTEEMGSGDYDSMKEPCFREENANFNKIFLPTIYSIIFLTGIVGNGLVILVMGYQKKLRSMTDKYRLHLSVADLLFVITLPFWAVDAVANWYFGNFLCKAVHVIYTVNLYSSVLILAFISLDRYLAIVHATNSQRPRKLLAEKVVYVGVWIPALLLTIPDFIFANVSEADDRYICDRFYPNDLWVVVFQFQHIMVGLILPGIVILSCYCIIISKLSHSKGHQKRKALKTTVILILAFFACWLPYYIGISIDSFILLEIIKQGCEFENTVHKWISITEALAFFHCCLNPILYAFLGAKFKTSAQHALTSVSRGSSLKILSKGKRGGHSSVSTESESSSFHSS
Chain of CXCR7 (P25106 whole entry): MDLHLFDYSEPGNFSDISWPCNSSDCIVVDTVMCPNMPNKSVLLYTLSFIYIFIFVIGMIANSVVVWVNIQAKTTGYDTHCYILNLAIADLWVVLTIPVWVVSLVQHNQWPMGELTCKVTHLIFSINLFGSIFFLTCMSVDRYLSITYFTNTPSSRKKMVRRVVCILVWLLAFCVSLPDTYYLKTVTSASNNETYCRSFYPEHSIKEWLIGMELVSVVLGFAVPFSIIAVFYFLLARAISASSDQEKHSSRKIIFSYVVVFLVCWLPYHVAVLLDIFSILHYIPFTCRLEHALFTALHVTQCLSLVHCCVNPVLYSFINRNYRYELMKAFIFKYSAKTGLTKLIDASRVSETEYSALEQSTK

Structure (SMILES): c1nc2c(NCc3ccc(CCNCCCNC4CCCCC4)cc3)nc(N3CCNCC3)nc2[nH]1 [Compound 24, N-Cyclohexyl-N′-(2-{4-[(2-piperazin-1-yl-9H-purin-6-ylami-no)-methyl]-phenyl}-ethyl)-propane-1,3-diamine]
inhibition (%) CCR4 ([1]; at 10 μM): 11%
IC50 ([1]; read-out: IC50 CCR4): > 10 µM
selective index CCR4 [1]: >609
inhibition (%) CXCR4 ([2]; at 10 μM): 100%
fold increase in CXCR4 binding affinity compared to AMD3100 ([2]; relative to AMD3100): 13 fold
fold increase in CXCR4 binding affinity compared to compound 4 ([2]; relative to compound 4): 2.2 fold
Selective Index CC50/EC50 TZM-bl ([3]; CC50 (TZM-bl) / anti-HIV EC50): >98039
CC50 ([3]; read-out: Cytotoxicity CC50 TZM-bl, TZM-bl cells, 72 h): > 50 µM
Selective Index CC50/EC50 CEM ([4]; CC50 (CEM) / anti-HIV EC50): >98039
CC50 ([4]; read-out: Cytotoxicity CC50 CEM, CEM cells, 72 h): > 50 µM
inhibition (%) CCR5 ([5]; at 10 μM): 15%
IC50 ([5]; read-out: IC50 CCR5): > 10 µM
selective index CCR5 [5]: >609
functional selectivity over CXCR4-dependent HIV entry inhibition ([6]; CXCR7 β-arrestin assay versus HIV entry inhibition): > 1960 fold
antagonism of SDF-1α binding to CXCR7 or triggering of β-arrestin recruitment ([6]; even at a 40-fold higher SDF-1α concentration): did not antagonize
inhibition (%) CXCR2 ([7]; at 10 μM): 16%
IC50 ([7]; read-out: IC50 CXCR2): > 10 µM
selective index CXCR2 [7]: >609
anti-HIV activity, time of addition ([8]; added 3 h after HIV-1 infection): significantly reduced
anti-HIV activity, time of addition ([8]; added 3 h before or simultaneously with HIV-1 infection): maintained its potent anti-HIV activity
IC50 [9]: 0.0031 µM
EC50 [10]: 0.00051 ± 2e-05 µM
inhibition (%) CCR2 ([11]; at 10 μM): 10%
IC50 ([11]; read-out: IC50 CCR2): > 10 µM
selective index CCR2 [11]: >609

IC50 [1]: > 10 µM
inhibition at 10 µM ([1]; read-out: inhibition (%) CCR4): 0%
selective index CCR4 [1]: >2380
inhibition at 10 µM ([2]; read-out: inhibition (%) CXCR4): 100%
fold increase in CXCR4 binding affinity compared to compound 24 ([2]; relative to compound 24): 4 fold
IC50 [5]: > 10 µM
inhibition at 10 µM ([5]; read-out: inhibition (%) CCR5): 14%
selective index CCR5 [5]: >2380
IC50 [7]: > 10 µM
inhibition at 10 µM ([7]; read-out: inhibition (%) CXCR2): 12%
selective index CXCR2 [7]: >2380
EC50 [10]: 0.00061 ± 0.00027 µM
IC50 [11]: > 10 µM
inhibition at 10 µM ([11]; read-out: inhibition (%) CCR2): 2%
selective index CCR2 [11]: >2380
Structure (SMILES): c1cc(CNCCCNC2CCCCC2)cc(CNc2nc(N3CCNCC3)nc3[nH]cnc23)c1 [Compound 25, N-Cyclohexyl-N′-{3-[(2-piperazin-1-yl-9H-purin-6-ylamino)-methyl]-benzyl}-propane-1,3-diamine]
CC50 at 72 h [12]: > 50 µM
selectivity ratio at 72 h [12]: > 83300
CC50 at 72 h [13]: > 50 µM
selectivity ratio at 72 h [13]: > 83300
